Data: PMC7311426, “An amphipathic peptide with antibiotic activity against multidrug-resistant Gram-negative bacteria” (Nature Communications, 2020)

How the values were obtained:
Experiment in all cases: microbe, parasite or virus in culture
K. pneumoniae = tested on: K. pneumoniae
Method in brief: (§1)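 Broth microdilution in MHB, 2-fold 12-point series from 128 or 64 down to 0.06 or 0.03 μg mL^−1, 5 × 10^5 CFU mL^−1. Extra runs in CAMHB per CLSI and in MHB with 1% agarose; n ≥ 6.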

E. coli = tested on: E. coli
Method in brief: as §1

P. aeruginosa = tested on: P. aeruginosa
Method in brief: as §1

Measured: MIC, broth microdilution

CN(C)c1cc(NC(=O)CNC(C)(C)C)c(O)c2c1C[C@H]1C[C@H]3[C@H](N(C)C)C(O)=C(C(N)=O)C(=O)[C@@]3(O)C(O)=C1C2=O [TIG]
8 µg/mL: P. aeruginosa; P. aeruginosa ATCC 27853 parent strain not exposed to drug | P. aeruginosa; P. aeruginosa UNT 138-1 parent strain not exposed to drug | P. aeruginosa; P. aeruginosa UNT 138-1 spontaneous mutant, AA139 selection 4X, plate 2, colony 7, drug-free passage 1 | P. aeruginosa; P. aeruginosa UNT 138-1 spontaneous mutant, AA139 selection 8X, plate 1, colony 1, drug-free passage 1 | P. aeruginosa; P. aeruginosa UNT 138-1 spontaneous mutant, AA139 selection 8X, plate 1, colony 2, drug-free passage 1 | P. aeruginosa; P. aeruginosa UNT 138-1 spontaneous mutant, AA139 selection 8X, plate 1, colony 3, drug-free passage 1 | P. aeruginosa; P. aeruginosa UNT 138-1 spontaneous mutant, AA139 selection 8X, plate 1, colony 4, drug-free passage 1
0.12 µg/mL: E. coli; E. coli AUD172 parent strain not exposed to drug | E. coli; E. coli AUD172 spontaneous mutant, AA139 selection 4X, plate 2, colony 2, drug-free passage 1
0.5, 0.5 µg/mL: K. pneumoniae; K. pneumoniae 3010 spontaneous mutant, AA139 selection 4X, plate 1, colony 1, drug-free passage 1 | K. pneumoniae; K. pneumoniae 3010 spontaneous mutant, AA139 selection 4X, plate 1, colony 1, drug-free passage 5 | K. pneumoniae; K. pneumoniae 3010 spontaneous mutant, AA139 selection 8X, plate 1, colony 1, drug-free passage 1 | K. pneumoniae; K. pneumoniae 3010 spontaneous mutant, AA139 selection 8X, plate 1, colony 1, drug-free passage 5 | K. pneumoniae; K. pneumoniae ST258 spontaneous mutant, AA139 selection 4X, plate 1, colony 1, drug-free passage 1 | K. pneumoniae; K. pneumoniae ST258 spontaneous mutant, AA139 selection 4X, plate 1, colony 1, drug-free passage 5
16, 16 µg/mL: P. aeruginosa; P. aeruginosa ATCC 27853 spontaneous mutant, AA139 selection 4X, plate 1, colony 5, drug-free passage 1 | P. aeruginosa; P. aeruginosa ATCC 27853 spontaneous mutant, AA139 selection 4X, plate 1, colony 5, drug-free passage 5 | P. aeruginosa; P. aeruginosa UNT 138-1 spontaneous mutant, AA139 selection 4X, plate 1, colony 1, drug-free passage 1 | P. aeruginosa; P. aeruginosa UNT 138-1 spontaneous mutant, AA139 selection 4X, plate 1, colony 1, drug-free passage 5 | P. aeruginosa; P. aeruginosa UNT 138-1 spontaneous mutant, AA139 selection 4X, plate 1, colony 2, drug-free passage 1 | P. aeruginosa; P. aeruginosa UNT 138-1 spontaneous mutant, AA139 selection 4X, plate 1, colony 2, drug-free passage 5 | P. aeruginosa; P. aeruginosa UNT 138-1 spontaneous mutant, AA139 selection 4X, plate 1, colony 3, drug-free passage 1 | P. aeruginosa; P. aeruginosa UNT 138-1 spontaneous mutant, AA139 selection 4X, plate 1, colony 3, drug-free passage 5 | P. aeruginosa; P. aeruginosa UNT 138-1 spontaneous mutant, AA139 selection 4X, plate 1, colony 4, drug-free passage 1 | P. aeruginosa; P. aeruginosa UNT 138-1 spontaneous mutant, AA139 selection 4X, plate 1, colony 4, drug-free passage 5 | P. aeruginosa; P. aeruginosa UNT 138-1 spontaneous mutant, AA139 selection 4X, plate 1, colony 5, drug-free passage 1 | P. aeruginosa; P. aeruginosa UNT 138-1 spontaneous mutant, AA139 selection 4X, plate 1, colony 5, drug-free passage 5 | P. aeruginosa; P. aeruginosa UNT 138-1 spontaneous mutant, AA139 selection 4X, plate 1, colony 6, drug-free passage 1 | P. aeruginosa; P. aeruginosa UNT 138-1 spontaneous mutant, AA139 selection 4X, plate 1, colony 6, drug-free passage 5 | P. aeruginosa; P. aeruginosa UNT 138-1 spontaneous mutant, AA139 selection 4X, plate 1, colony 7, drug-free passage 1 | P. aeruginosa; P. aeruginosa UNT 138-1 spontaneous mutant, AA139 selection 4X, plate 1, colony 7, drug-free passage 5 | P. aeruginosa; P. aeruginosa UNT 138-1 spontaneous mutant, AA139 selection 4X, plate 2, colony 1, drug-free passage 1 | P. aeruginosa; P. aeruginosa UNT 138-1 spontaneous mutant, AA139 selection 4X, plate 2, colony 1, drug-free passage 5 | P. aeruginosa; P. aeruginosa UNT 138-1 spontaneous mutant, AA139 selection 4X, plate 2, colony 2, drug-free passage 1 | P. aeruginosa; P. aeruginosa UNT 138-1 spontaneous mutant, AA139 selection 4X, plate 2, colony 2, drug-free passage 5 | P. aeruginosa; P. aeruginosa UNT 138-1 spontaneous mutant, AA139 selection 4X, plate 2, colony 3, drug-free passage 1 | P. aeruginosa; P. aeruginosa UNT 138-1 spontaneous mutant, AA139 selection 4X, plate 2, colony 3, drug-free passage 5 | P. aeruginosa; P. aeruginosa UNT 138-1 spontaneous mutant, AA139 selection 4X, plate 2, colony 4, drug-free passage 1 | P. aeruginosa; P. aeruginosa UNT 138-1 spontaneous mutant, AA139 selection 4X, plate 2, colony 4, drug-free passage 5 | P. aeruginosa; P. aeruginosa UNT 138-1 spontaneous mutant, AA139 selection 4X, plate 2, colony 5, drug-free passage 1 | P. aeruginosa; P. aeruginosa UNT 138-1 spontaneous mutant, AA139 selection 4X, plate 2, colony 5, drug-free passage 5 | P. aeruginosa; P. aeruginosa UNT 138-1 spontaneous mutant, AA139 selection 4X, plate 2, colony 6, drug-free passage 1 | P. aeruginosa; P. aeruginosa UNT 138-1 spontaneous mutant, AA139 selection 4X, plate 2, colony 6, drug-free passage 5 | P. aeruginosa; P. aeruginosa UNT 138-1 spontaneous mutant, AA139 selection 8X, plate 1, colony 5, drug-free passage 1 | P. aeruginosa; P. aeruginosa UNT 138-1 spontaneous mutant, AA139 selection 8X, plate 1, colony 5, drug-free passage 5 | P. aeruginosa; P. aeruginosa UNT 138-1 spontaneous mutant, AA139 selection 8X, plate 2, colony 1, drug-free passage 1 | P. aeruginosa; P. aeruginosa UNT 138-1 spontaneous mutant, AA139 selection 8X, plate 2, colony 1, drug-free passage 5
8, 8 µg/mL: P. aeruginosa; P. aeruginosa ATCC 27853 spontaneous mutant, AA139 selection 4X, plate 1, colony 1, drug-free passage 1 | P. aeruginosa; P. aeruginosa ATCC 27853 spontaneous mutant, AA139 selection 4X, plate 1, colony 1, drug-free passage 5 | P. aeruginosa; P. aeruginosa ATCC 27853 spontaneous mutant, AA139 selection 4X, plate 1, colony 2, drug-free passage 1 | P. aeruginosa; P. aeruginosa ATCC 27853 spontaneous mutant, AA139 selection 4X, plate 1, colony 2, drug-free passage 5 | P. aeruginosa; P. aeruginosa ATCC 27853 spontaneous mutant, AA139 selection 4X, plate 1, colony 3, drug-free passage 1 | P. aeruginosa; P. aeruginosa ATCC 27853 spontaneous mutant, AA139 selection 4X, plate 1, colony 3, drug-free passage 5 | P. aeruginosa; P. aeruginosa ATCC 27853 spontaneous mutant, AA139 selection 4X, plate 1, colony 4, drug-free passage 1 | P. aeruginosa; P. aeruginosa ATCC 27853 spontaneous mutant, AA139 selection 4X, plate 1, colony 4, drug-free passage 5 | P. aeruginosa; P. aeruginosa ATCC 27853 spontaneous mutant, AA139 selection 4X, plate 1, colony 6, drug-free passage 1 | P. aeruginosa; P. aeruginosa ATCC 27853 spontaneous mutant, AA139 selection 4X, plate 1, colony 6, drug-free passage 5 | P. aeruginosa; P. aeruginosa ATCC 27853 spontaneous mutant, AA139 selection 4X, plate 2, colony 1, drug-free passage 1 | P. aeruginosa; P. aeruginosa ATCC 27853 spontaneous mutant, AA139 selection 4X, plate 2, colony 1, drug-free passage 5 | P. aeruginosa; P. aeruginosa ATCC 27853 spontaneous mutant, AA139 selection 4X, plate 2, colony 2, drug-free passage 1 | P. aeruginosa; P. aeruginosa ATCC 27853 spontaneous mutant, AA139 selection 4X, plate 2, colony 2, drug-free passage 5 | P. aeruginosa; P. aeruginosa ATCC 27853 spontaneous mutant, AA139 selection 4X, plate 2, colony 3, drug-free passage 1 | P. aeruginosa; P. aeruginosa ATCC 27853 spontaneous mutant, AA139 selection 4X, plate 2, colony 3, drug-free passage 5 | P. aeruginosa; P. aeruginosa ATCC 27853 spontaneous mutant, AA139 selection 4X, plate 2, colony 4, drug-free passage 1 | P. aeruginosa; P. aeruginosa ATCC 27853 spontaneous mutant, AA139 selection 4X, plate 2, colony 4, drug-free passage 5 | P. aeruginosa; P. aeruginosa ATCC 27853 spontaneous mutant, AA139 selection 8X, plate 1, colony 1, drug-free passage 1 | P. aeruginosa; P. aeruginosa ATCC 27853 spontaneous mutant, AA139 selection 8X, plate 1, colony 1, drug-free passage 5 | P. aeruginosa; P. aeruginosa ATCC 27853 spontaneous mutant, AA139 selection 8X, plate 1, colony 2, drug-free passage 1 | P. aeruginosa; P. aeruginosa ATCC 27853 spontaneous mutant, AA139 selection 8X, plate 1, colony 2, drug-free passage 5 | P. aeruginosa; P. aeruginosa ATCC 27853 spontaneous mutant, AA139 selection 8X, plate 1, colony 3, drug-free passage 1 | P. aeruginosa; P. aeruginosa ATCC 27853 spontaneous mutant, AA139 selection 8X, plate 1, colony 3, drug-free passage 5 | P. aeruginosa; P. aeruginosa ATCC 27853 spontaneous mutant, AA139 selection 8X, plate 1, colony 4, drug-free passage 1 | P. aeruginosa; P. aeruginosa ATCC 27853 spontaneous mutant, AA139 selection 8X, plate 1, colony 4, drug-free passage 5 | P. aeruginosa; P. aeruginosa ATCC 27853 spontaneous mutant, AA139 selection 8X, plate 1, colony 5, drug-free passage 1 | P. aeruginosa; P. aeruginosa ATCC 27853 spontaneous mutant, AA139 selection 8X, plate 1, colony 5, drug-free passage 5
0.5 µg/mL: K. pneumoniae; K. pneumoniae 3010 parent strain not exposed to drug | K. pneumoniae; K. pneumoniae ST258 parent strain not exposed to drug | E. coli; E. coli AUD172 spontaneous mutant, AA139 selection 4X, plate 2, colony 2, drug-free passage 5
16 µg/mL: P. aeruginosa; P. aeruginosa UNT 138-1 spontaneous mutant, AA139 selection 4X, plate 2, colony 7, drug-free passage 5 | P. aeruginosa; P. aeruginosa UNT 138-1 spontaneous mutant, AA139 selection 8X, plate 1, colony 1, drug-free passage 5 | P. aeruginosa; P. aeruginosa UNT 138-1 spontaneous mutant, AA139 selection 8X, plate 1, colony 2, drug-free passage 5 | P. aeruginosa; P. aeruginosa UNT 138-1 spontaneous mutant, AA139 selection 8X, plate 1, colony 3, drug-free passage 5 | P. aeruginosa; P. aeruginosa UNT 138-1 spontaneous mutant, AA139 selection 8X, plate 1, colony 4, drug-free passage 5
